According to patent publication US10702489B2, “Treatment of nervous system disorders using combinations of RXR agonists and thyroid hormones” (IO Therapeutics, Inc., priority 2015, dated 2020):
“Also recorded” adds a separate entry of the source.

Assays:
[1] = system: oligodendrocyte precursor cells (OPCs); assay: oligodendrocyte precursor cell differentiation (PLP-EGFP); type: cell-based, mouse
Source text: OPCs were generated from a neurosphere culture of E14.5 PLP-EGFP (on C57BL/6J background) mouse brains. […] The EGFP expressing cells were quantified with Cellomics Neuronal Profiling Algorithm.
The EGFP expressing cells in controls and all compounds were quantified with Cellomics Neuronal Profiling Algorithm.

Nurr1/RXR heterodimer = target: T1, Nurr1/RXR heterodimer (Homo sapiens, UniProt P19793); assay: receptor transactivation assay Nurr1/RXR; type: cell-based; settings: COS7 cells
T1 construct: full length Nurr-1 with or without full-length RXRα plasmid; expressed in transfected cells; host or cells: COS7
Source text: For PPARγ: CV-1 cells were transfected with 3×(rAOX/DR1)-tk-Luc reporter gene and an expression vector for PPARγ. For FXR:CV-1 cells were transfected with 3×(IBABP/IRI)-tk-Luc reporter gene and vectors for FXR and RXRα. For LXR:CV-1 cells were transfected with 3×(PLTP/LXRE)-tk-Luc reporter gene with vectors for LXRα or LXRβ. For Nurr1: COS7 cells were transfected with 3×NBRE-tk-luc reporter gene and full length Nurr-1 with or without full-length RXRα plasmid. […] Luciferase data were normalized to co-transfected β-gal activity. Luciferase activity was expressed as percent of maximal activity obtained using specific agonists. Rosiglitazone (PPARγ), GW4064 (FXR), T0901317 (LXR).

[2] = system: mouse oligodendrocyte progenitor cells (OPCs); assay: mouse OPC differentiation with IRX4204 and T3; type: cell-based; settings: 5-day treatment; IRX4204 10, 1, 0.1 nM
Protocol: OPCs were derived from plp-EGFP expressing mice.
Therapeutic agents were tested in 96-well plates (6 wells per concentration). […] All media contained 0.1% DMSO. At the end of the 5-day treatment, cells were imaged on Cellomics in two channels and algorithms were used to count nuclei and EGFP+oligodendrocytes.

[3] = system: C57BL/6J mice with cuprizone+rapamycin demyelination; type: in vivo
SJL mice with EAE = assay: EAE in SJL mice, PLP peptide; type: in vivo, mouse
Protocol: To determine whether a RXR agonist can attenuate multiple sclerosis, SJL mice were immunized to induce EAE by s.c. injection at the base of their spine with 200 μL of adjuvant containing 200 μg proteolipid proteins (139-151) (PLP peptide; Peptides International, Louisville, Ky.) and 400 μg of non-viable M. tuberculosis H37 desiccate emulsified in a mixture of incomplete Freund's adjuvant and PBS. Mice were also given 150 ng of pertussis toxin in PBS i.p. on the same day as PLP emulsion injection and 2 days later. […] Mice were scored using the scale described in Example 3.

[4] = system: C57BL/6 (B6) mice with experimental autoimmune encephalomyelitis (EAE); assay: EAE in C57BL/6 (B6) mice, MOG peptide; type: in vivo, mouse; settings: IRX4204 50 μg every other day from day 7 to day 20
Protocol: Mice were also given 200 ng of pertussis toxin in PBS administered by inter-peritoneal (i.p.) injection on the same day as MOG emulsion injection (day 0) and 2 days later (day 2). […] Mice were scored using the following scale: 0—Mice have no disease, 1—Mice have distal limp tail or rear leg weakness (paresis), 1.5—Mice have distal limp tail and rear leg weakness, 2—Mice have complete limp tail and rear leg weakness, 2.5—Mice have complete limp tail and weakness in both rear legs, 3—Mice have complete limp tail and paralysis in both rear legs, 3.5—Mice have complete limp tail, paralysis in both rear legs, and forelimb weakness. Mice receiving a score of 3.5 were immediately euthanized.

B6 mice with EAE = assay: EAE dose titration in B6 mice with spleen and CNS analysis; type: in vivo, mouse
Protocol: A dose titration experiment was also conducted in EAE mice. EAE was induced in 28 B6 mice with MOG/CFA and PT as above. Mice were scored on day 7 as indicated above and divided into groups by score so means are as equal as possible.
At the completion of the experiment, the vehicle control and 200 μg/day groups were euthanized and spleen and CNS samples obtained.

[5] = system: C57BL/6J mice with cuprizone+rapamycin demyelination; assay: 12-week cuprizone/rapamycin demyelination model, 6 weeks of treatment; type: in vivo, mouse; settings: 6 weeks of treatment after 12 weeks CR
Source text: All animals were sacrificed after 12 weeks of CR or after further 6 weeks of treatment to evaluate myelin in white matter (corpus callosum) and gray matter (hippocampus and cortex). In addition, the size of myelinated axons was quantified and the large myelinated axons were further assessed by 3D-electron microscopy (3D-EM). A total of 40 animals were included in the study, where all 40 animals received CR demyelination for 12 weeks. After demyelination, a subset (n=10) of animals are sacrificed to serve as controls to assess baseline demyelination. […] Floating brain sections are immunostained with myelin prolipid protein (PLP) to visualize and quantify myelin in gray matter, hippocampus (FIG. 16A) and cortex (FIG. 16B).

RXRα = target: T2, RXRα (Homo sapiens, UniProt P19793)
T2 sequence (P19793 1-462): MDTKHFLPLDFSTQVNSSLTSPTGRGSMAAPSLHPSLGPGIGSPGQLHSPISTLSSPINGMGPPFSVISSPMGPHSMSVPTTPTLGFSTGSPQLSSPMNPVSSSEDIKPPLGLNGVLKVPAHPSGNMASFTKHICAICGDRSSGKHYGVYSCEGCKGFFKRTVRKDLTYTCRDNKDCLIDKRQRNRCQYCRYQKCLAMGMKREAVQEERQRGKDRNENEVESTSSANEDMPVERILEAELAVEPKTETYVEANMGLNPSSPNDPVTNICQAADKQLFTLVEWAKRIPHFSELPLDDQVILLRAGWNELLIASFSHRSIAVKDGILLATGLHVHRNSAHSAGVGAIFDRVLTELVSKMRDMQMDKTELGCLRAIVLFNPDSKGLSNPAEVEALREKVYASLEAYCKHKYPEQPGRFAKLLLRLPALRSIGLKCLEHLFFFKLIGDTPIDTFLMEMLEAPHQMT
Protocol: (§1) To determine whether a RXR agonist can mediate its effects via RXRα receptor homodimers, RXRβ receptor homodimers, RXRγ receptor homodimers, or any combination thereof, or the corresponding RAR/RXR heterodimers, receptor-mediated transactivation assays were performed. For transactivation assays assessing RXR homodimer signaling, CV-1 cells were transfected with 1) an expression construct including a full length RXRα, RXRβ, or RXRγ; and 2) a rCRBPII/RXRE-tk-Luc reporter construct that included RXR homodimer-specific RXRE/DR1 responsive element linked to a luciferase gene. For transactivation assays assessing RAR/RXR heterodimer signaling, CV-1 cells were transfected with 1) an expression construct comprising a fusion protein including an estrogen receptor (ER) DNA binding domain linked to the ligand binding domain of RARα, RARβ, or RARγ and 2) a ERE-tk-Luc reporter construct that included an estrogen receptor responsive element linked to a luciferase gene. […] Data are mean values±SE from five independent experiments.

RXRγ = RXRγ (Homo sapiens, UniProt P48443)
Protocol: as §1

[6] = system: C57BL/6 (B6) mice with EAE; assay: CNS infiltrating cells in EAE B6 mice; type: in vivo, mouse; settings: day 20 after immunization
Protocol: To determine whether a RXR agonist can reduce central nervous system (CNS) infiltrating cells, C57BL/6 (B6) mice were treated as described in Example 6. On day 20 after immunization, mice were sacrificed and perfused with phosphate buffered saline (PBS). Brain and spinal cord tissue was isolated, digested with DNase and LIBERASE DL® (Roche Diagnostics, Indianapolis, Ind.) for 30 minutes, and homogenized through 70 micron nylon mesh filters. Resulting cells were placed over a Percoll gradient to remove myelin. The remaining cells (microglia and CNS infiltrating cells) were counted, stained for molecules of interest, and run on a flow cytometer. Based on the frequencies obtained by FACS of these cell populations, total cell numbers of CNS infiltrating leukocytes expressing CD45, including CD4^+ T cells and CD11c^+ CD11b^+ myeloid dendritic cells (DC), were calculated.

[7] = system: rat 6-OHDA induced Parkinson Disease (PD) model; assay: rat 6-OHDA induced Parkinson Disease model, paw placement (cylinder test); type: in vivo; settings: day 24; IRX4204 10 mg/kg PO, T3 1.5 μg/kg and T4 9 μg/kg SC
Protocol: The paw placement (cylinder test) was used for assessment of the damage. This test assessed a rat's independent forelimb use to support the body against the walls of a cylindrical enclosure. The test took advantage of the animals' innate drive to explore a novel environment by standing on the hind limbs and leaning towards the enclosing walls.
To perform this test, rats were placed individually in a glass cylinder (21 cm diameter, 34 cm height) and wall exploration was recorded for 3 minutes. No habituation to the cylinder prior to recording was allowed.
The statistical analysis was performed as ratio between the intact and impaired legs (R/L ratio). The ratio was expressed as the values of intact right+both forelimbs divided by the values of impaired left +both forelimbs. A lower value of the ratio means greater healing of the 6-OHDA induced brain damage.
Once a week during three weeks (study days 10, 17 and 24), the animals were re-tested for their performance in the paw placement test.

[8] = system: early Parkinson's Disease subjects; assay: open-label clinical study in early Parkinson's Disease subjects; type: in vivo, human; settings: for Change in TSH / Total Motor Change / Total UPDRS Change: 15 days
Protocol: An open-label, single site clinical study of early Parkinson's Disease subjects treated with IRX4204 was conducted to determine whether the preclinical promise of IRX4204 as a disease modifying agent for PD will translate to the clinical setting upon treatment of early PD patients with IRX4204 as determined by Unified Parkinson's Disease Rating Scale (UPDRS) measurements and safety assessments. The changes in UPDRS scores were correlated with circulating thyroxine levels.
Five subjects were recruited for each of the three dose levels. All fifteen subjects completed 15 days of dosing.
All subjects ([…]) completed 15 days of dosing and returned to the clinic at the end of 2 weeks (day 15-17) for UPDRS score determination and safety assessments including determination of plasma thyroxine (T4) levels. Percent changes in Total Motor scores, Total UPDRS scores and plasma T4 values were determined according to the following: […]

[9] = system: one year old rats, caudal cerebellar peduncle lesions; assay: focal ethidium bromide induced rat model of demyelination; type: in vivo; settings: IRX4204 10 mg/kg/day oral, thyroxine 20 ng/g s.c., 14 days
Protocol: The experiment uses rats of relatively advanced age (1 year) since such rats undergo remyelination in a less efficient manner, thereby providing data that are more relevant to the clinical treatment of human patients with multiple sclerosis or other demyelination disorders.
Focal demyelination is induced in one year old rats (approximately 300 g in weight) by injecting stereotactically 5 μl of ethidium bromide solution (0.01% vol/vol in saline) in a bilateral manner into the caudal cerebellar peduncles (CCP). […] The rats are killed on day 24 post-ethidium bromide treatment for analysis of remyelination by quantitative polymerase chain reaction (qPCR) and microscopy.

[10] = 50 μg i.p. every other day from day 7, n=6
[11] = 200 μg/day, restimulation with PMA/Ionomycin

T1 sequence (P43354 whole entry partner, one chain of several): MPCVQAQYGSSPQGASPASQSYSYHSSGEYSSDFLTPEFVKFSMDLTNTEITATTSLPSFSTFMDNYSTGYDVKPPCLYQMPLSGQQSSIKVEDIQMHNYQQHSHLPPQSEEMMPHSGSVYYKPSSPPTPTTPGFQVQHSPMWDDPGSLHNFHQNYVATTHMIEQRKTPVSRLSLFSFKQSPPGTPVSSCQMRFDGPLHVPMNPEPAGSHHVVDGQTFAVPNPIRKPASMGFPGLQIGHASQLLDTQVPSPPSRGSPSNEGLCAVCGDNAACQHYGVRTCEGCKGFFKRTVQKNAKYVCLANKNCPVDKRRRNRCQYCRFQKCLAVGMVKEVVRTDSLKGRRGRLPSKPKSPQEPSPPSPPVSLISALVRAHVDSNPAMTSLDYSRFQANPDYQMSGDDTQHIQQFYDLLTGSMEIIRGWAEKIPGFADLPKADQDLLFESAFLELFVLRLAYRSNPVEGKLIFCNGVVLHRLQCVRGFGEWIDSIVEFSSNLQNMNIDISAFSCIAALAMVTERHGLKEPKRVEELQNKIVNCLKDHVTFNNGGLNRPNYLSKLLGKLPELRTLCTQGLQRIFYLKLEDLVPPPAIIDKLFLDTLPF
Chain of RXRγ (P48443 whole entry): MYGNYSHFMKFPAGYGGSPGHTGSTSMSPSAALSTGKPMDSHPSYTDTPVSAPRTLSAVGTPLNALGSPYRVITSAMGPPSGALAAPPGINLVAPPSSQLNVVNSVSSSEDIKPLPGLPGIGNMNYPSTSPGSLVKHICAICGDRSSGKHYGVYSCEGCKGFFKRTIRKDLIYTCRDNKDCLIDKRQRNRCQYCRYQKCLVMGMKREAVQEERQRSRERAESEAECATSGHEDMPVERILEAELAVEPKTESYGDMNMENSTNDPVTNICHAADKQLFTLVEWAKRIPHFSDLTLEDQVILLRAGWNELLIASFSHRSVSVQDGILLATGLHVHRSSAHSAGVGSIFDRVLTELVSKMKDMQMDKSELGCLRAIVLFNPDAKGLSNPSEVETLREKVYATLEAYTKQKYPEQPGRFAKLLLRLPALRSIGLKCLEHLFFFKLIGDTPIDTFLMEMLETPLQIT

## CC(/C=C/[C@@H]1C[C@]1(C)c1ccc2c(c1)C(C)(C)CCC2(C)C)=C\C(=O)O [IRX4204, 3,7-dimethyl-6(S),7(S)-methano,7-[1,1,4,4-tetramethyl-1,2,3,4-tetrahydronaphth-7-yl]2(E),4(E) heptadienoic acid]
[1]; all concentrations except the lowest (1^−6 μM)
  OPC differentiation into oligodendrocytes (EGFP positive cells compared to DMSO): significant increase; also recorded: dose dependent increase
[1]; compared to controls
  total cell number and pyknotic cells: did not show any differences
Nurr1/RXR heterodimer
  activation of Nurr1/RXR permissive heterodimer: selectively activates
[2]
  oligodendrocyte production (EGFP+ oligodendrocytes): clear dose-responses
[3]; ANOVA, IRX4204 or vehicle groups
  terminal body weights: no significant difference
[3]; IRX4204 10 mg/kg PO, T4 20 ng/g SQ, daily 6 weeks, versus Vehicle, 10 mg/kg
  number of SMI32 positive axonal ovoids in corpus callosum: trend towards decreased number of axonal ovoids but was not statistically different from the Vehicle; also recorded: trend towards decrease in axonal ovoids, but it was statistically not different from vehicle
[3]; daily 6 weeks, versus vehicle
  microglial/macrophage activation (Iba1 staining) in corpus callosum: no difference
[3]; terminal blood draw
  decrease in T4 levels compared to vehicle control animals: ~50%
SJL mice with EAE; 50 μg i.p. every other day from day 7
  Mean Maximum Score: 1.5 ± 1.4
SJL mice with EAE; [10]
  Death from Disease: 0/6
  Disease Incidence: 4/6
SJL mice with EAE; 50 μg i.p. every other day, to day 14
  symptoms of EAE (scores of disease severity): significantly reduces the symptoms of EAE
[4]
  symptoms of EAE (scores of disease severity over time): significantly reduces the symptoms of EAE
B6 mice with EAE; 50 μg, 100 μg or 200 μg every day from day 8
  disease overall (EAE score): significantly less disease overall
B6 mice with EAE; 200 μg/day
  CCR6 expression on CD4 T cells, spleen: lowered
  CD4+ CD25hi cells (number), spleen: reduced
  co-expression of IFNg and IL-17A by CD4 T cells in CNS: not significantly different between groups
  frequency of CD4+ CD25hi cells, spleen: not altered
  total number of effector and memory CD4 T cells (CD44), spleen: decreased
  total number of infiltrating CD4 T cells in the CNS: reduced
  total number of recently activated CD4 T cells (CD69 and CD44), spleen: decreased
B6 mice with EAE; [11]
  IFNγ, CNS infiltrating lymphocytes: significantly reduced
  TNF, CNS infiltrating lymphocytes: significantly reduced
[5]
  size of myelinated axons in the corpus callosum: significantly increases; also recorded: shift in distribution to larger axon diameter
RXRα; CV-1 cells
  Efficacy (% of 1 μM IRX4204) RXRα: 100 % of 1 μM IRX4204
RXRα; RXR versus RAR receptors
  more potent in activating RXR receptors rather than RAR receptors: > 1,000 fold
RXRγ
  Efficacy (% of 1 μM IRX4204) RXRγ: 100 % of 1 μM IRX4204
[6]
  infiltration of CD4+ cells in to the CNS: significant reduction
  infiltration of CD11c+ CD11b+ cells (myeloid DC) in to the CNS: significant reduction
[7]
  mean body weight: 157.17±2.93%
[8]; 5 mg/day
  Change in TSH: −28.9%
  Total Motor Change: −31.4%
  Total UPDRS Change: −18.7%
[8]; 10 mg/day
  Change in TSH: −36.6%
  Total UPDRS Change: −13.6%
[8]; 20 mg/day
  reduction in Total UPDRS scores: 6.6%
  reduction of plasma T4: 98.8%
  Change in TSH: −98.8%
  Total Motor Change: −14.5%
[9]
  Mbp expression (real-time qPCR of lesion samples): increase
  Nkx2.2+ oligodendrocyte precursor cells (OPCs) in lesions: increased
  Pdgfra expression (real-time qPCR of lesion samples): increase
  density of CC1+ differentiated oligodendrocytes in lesions: increased
  density of Olig2+ oligodendrocyte lineage cells in lesions: increased
  remyelinated axons (ultrastructural analyses of CCP lesions): more remyelinated axons than vehicle treatment

## N[C@@H](Cc1cc(I)c(Oc2ccc(O)c(I)c2)c(I)c1)C(=O)O [T3, triiodothyronine, reference compound]
[2]
  oligodendrocyte production (EGFP+ oligodendrocytes): clear dose-responses
